Measured values from ChEMBL document CHEMBL1139882, “Aurantiomides A-C, quinazoline alkaloids from the sponge-derived fungus Penicillium aurantiogriseum SP0-19” (J Nat Prod, 2007).
In brackets after ≈: the same amount, converted by molar mass.

Columns and labels:
P388 = assay: Cytotoxicity against P388 cells after 72 hrs by MTT assay; type: cell-based, Mus musculus; conditions: for IC50: Mus musculus, P388, 72 h
A549 = assay: Cytotoxicity against A549 cells after 72 hrs by MTT assay; type: cell-based; conditions: human, a549, 72 h
[1] = Cytotoxicity against BEL-7402 cells after 72 hrs by MTT assay; type: cell-based, Homo sapiens
HL-60 = assay: Cytotoxicity against HL60 cells after 72 hrs by MTT assay; type: cell-based, Homo sapiens

Compound	Activity (P388; mouse, p388, 72 h)	Activity (A549)	Activity ([1]; human, bel-7402, 72 h)	Activity (HL-60; human, hl-60, 72 h)	IC50 (P388)	IC50 (HL-60; Homo sapiens, HL-60, 72 h)	IC50 ([1]; Homo sapiens, Bel-7402, 72 h)
CO[C@@]1(CC(C)C)NC(=O)[C@H](CCC(N)=O)n2c1nc1ccccc1c2=O [AURANTIOMIDE A]	Not Active	Not Active	Not Active	Not Active	–	–	–
CC(C)C[C@]1(O)NC(=O)[C@H](CCC(N)=O)n2c1nc1ccccc1c2=O [AURANTIOMIDE B]	–	–	–	–	54 µg/mL (≈ 151 µM)	52 µg/mL (≈ 145 µM)	–
CC(C)/C=C1\NC(=O)[C@H](CCC(N)=O)n2c1nc1ccccc1c2=O [AURANTIOMIDE C]	–	–	–	–	48 µg/mL (≈ 141 µM)	–	48 µg/mL (≈ 141 µM)
